From patent US11541029B2, “High penetration compositions and their applications” (Techfields Pharma Co., Ltd., priority 2008, dated 2023) come the findings set out here.

SMILES strings stand for the structures. Values after ≈ are worked out from the molar mass of the structure shown. Where a name gives a salt, the structure may show the parent alone. Read-outs that look alike come from different tables or passages of the source.

For series [1], the system named is eyelashes and hairs. The series can be described thus: Stimulation of hair growth and eyelash growth by HPCs of prostaglandins. The series is classed as in vivo. The following applies: about 1 ml of 1% in pure water on head skin, more than 1 month.
The subject of series [2] is eyelashes and hairs. The description is as above. The following applies: about 0.2 ml of 1% in pure water near the eyelashes, more than 1 month. It counts as in vivo. The method, then: (§1) About 0.2 ml of 1% of HPC of N,N-diethylaminoethyl 11,15-dihydroxy-9-oxoprost-13-en-1-oate.HBr (the HPC of prostaglandin E1), N,N-diethylaminoethyl (Z)-7-{[(1R,2R,3R,5S)-3,5-Dihydroxy-2-[1E,3S]-3-hydroxy-5-phenyl-1-pentenyl]cyclopentyl}-5-N-ethylheptenoate.HBr(the HPC of bimatoprost), (13,14-dihydro-17-phenyl-18,19,20-trinor PGF2αN,N-diethylaminoethyl ester, N,N-diethylaminoethyl (Z)-7-[(1R,2R,3R,5S)-3,5-dihydroxy-2-[(1E,3R)-3-hydroxy-4-[(α,α,α-trifluoro-m-tolyl)oxy]-1-butenyl]cyclopentyl]-5-heptenoate.HBr, or 13,14-dihydro-15-keto-20-ethyl PGF2αN,N-diethylaminoethyl ester in pure water is applied to the skin area close to the eyelashes (0.1 ml solution for each eye).
as §1, with “1” for “0.2”, “(frontal and parietal areas) on” for “area close to”, “head skull.” for “eyelashes (0.1 ml solution for each eye).”

The subject of series [3] is Human colon cancer cells (LS174J). The series can be described thus: Human colon cancer xenograft in nude mice. The text has this:
Human colon cancer cells (LS174J, 2-3 mm^3 of tumor tissue was used in each mouse) were subcutaneously xenografted into nude mice (BALB).
In general terms: In xenograft studies the graft and the host belong to different species.

Series [4] deals with Human breast cancer cells (BCAP-37). The series can be described thus: Human breast cancer xenograft in nude mice. On the procedure: Human breast cancer cells (BCAP-37, 2-3 mm^3 of tumor tissue was used in each mouse) were subcutaneously xenografted into nude mice (BALB, 12 groups, 7 mice each group). […] 50 μl of 5% (equal to 2.5 mg of the HPCs) diethylaminoethyl acetylsalicylate.HCl (P-1, in pure water); 1-piperidinepropyl 2[(2,6-dichlorophenyl)amino]benzene acetate.HCl (P-2, in water), 1-pyrrolidinepropyl 2-(3-benzoylphenyl) propionate.HCl (P-3, in water), 4-piperidinemethyl 2-(3-phenoxyphenyl)propionate.HCl (P-4, in water), 3-piperidinemethyl 2-(ρ-isobutylphenyl) propionate.HCl (P-5, in water), diethylaminoethyl 1-(p-chlorobenzoyl)-5-methoxy-2-methylindole 3-acetate.HCl (P-11, in water), 2-(4-morpholinyl)ethyl (Z)-5-fluoro-2-methyl-1-[(4-methylsulfinyl)phenylmethylene]-1H-indene-3-acetate.

For series [5], the system named is lesions similar to psoriasis generated by Malassezia. Description: Anti-psoriasis activity, Malassezia-induced lesions. It counts as in vivo, Chinese white rabbits. The following applies: HPC 5% aq. applied to the lesion areas twice per day. On the procedure:
Heavy suspensions of Malassezia [Rosenberg, E. W., et al., Mycopathologia, 72, 147-154 (1980)] were applied to the shaved skin on the backs of Chinese white rabbits (n=4×6) twice (at […]) per day for 2 weeks to generate lesions similar to psoriasis. HPCs (5%, aq.) were applied to the same areas 3 hours (10 am and 6 pm) after the application of Malassezia (7 am and 3 pm). […] HCl, diethylaminoethyl 1,8-diethyl-1,3,4,9-tetrahydropyrano-[3,4-b]indole-1-acetate.HCl, diethylaminoethyl 2-amino-3-(4-bromo-benzoyl)benzeneacetate.HCl, diethylaminoethyl 3-chloro-4-(2-propenyloxy)benzeneacetate. HCl, diethylaminoethyl 1-(4-chlorobenzoyl-5-methoxy-2-methyl-1H-indole-3-acetoxyacetate. HCl, diethylaminoethyl 4-(4-chlorophenyl)-2-phenyl-5-thiazoleacetate.HCl, and diethylaminoethyl 3-(4-chlorophenyl)-1-phenyl-1H-pyrazole-4-acetate.HCl

In a further series the test system is Hypertension patients. The series can be described thus: Anti-hypertensive effect of transdermal atenolol HCl salt in patients. The series is classed as in vivo, human. On the procedure:
20 Hypertension patents were divided to 2 groups. Group A was control group (n=10, 1 ml of water was administrated to the chest of patients once per day) and group B was atenolol treated group (n=10, 100 mg of atenolol HCl salt was administrated to the chest of patients once per day).

Series [6] relates to methicillin-resistant Staphylococcus aureus (MRSA). Description: Minimum inhibitory concentrations (MICs). It counts as cell-based. On the procedure:
Minimum inhibitory concentrations (MICs) of the antimicrobials and their HPCs were assessed according to Jennifer M. Andrews, Journal of Antimicrobial Chemotherapy 48, suppl. S1, 5-16 (2001). […] The test compounds are: 6-phenoxyacetacetamidopenicillanic acid 1-piperidineethyl ester hydrochloride (penicillin V-PEE), penicillin V, 6-(2,6-dimethoxybenzamido)penicillinic acid 2-pyrrolidinemethyl ester hydrochloride (methicillin-PME), methicillin, 7-[[(2-acetylamino-4-thiazolyl)(methoxyimino)acetyl]amino]-8-oxo-5-thia-1-azabicyclo[4.2.0]oct-2-ene-2-carboxylic acid 2-diethylaminoethyl ester hydrochloride (ceftizoxime-DEE), and ceftizoxime).

Series [7] has as its system MPTP-induced Parkinson's disease mice. Description: Anti-Parkinson's disease activity in MPTP-induced mice. The following applies: mouse, in vivo.
Method: Group A mice were ip injected 0.4% sodium carboxymethylcellulos (15 ml/kg per day) for 7 days. Group B and C mice were ip injected N-methyl-4-phenyl-1,2,3,6-tetrahydropyridine (MPTP, 30 mg/kg per day) for 7 days. The mice were divided into 2 groups. […] All mice were killed after the last treatment and the brain tissues were quickly freezed at −80° C. […] The contents of malondialdehyde (MDA) in the SN were measured with the thiobarbituric acid-reaction to indicate the LPO, and contents of glutathione (GSH) in the substantia nigra (SN) were based on the dithionitrobenzonic acid (DTNB) determination. The contents of GABA and Glu in the striatum and SN were shown by high performance amino acid auto-analyser.
Setting [8] is: about 50 μl of 5% topically every 12 hours.
The mark [9] stands for this setting: 100 mg to the chest once per day, n=10.

On to `CCCCCCCC(=O)CC[C@@H]1[C@@H](C/C=C\CCCC(=O)OCCN(CC)CC)[C@@H](O)C[C@H]1O` [13,14-dihydro-15-keto-20-ethyl PGF2αN,N-diethylaminoethyl ester], for which the hair growth result in the series on eyelashes and hairs [1] was “grow longer and fuller”. Besides, the eyelash growth entry with eyelashes and hairs [2] was “grow longer and fuller”.
For `CCN(CC)CCOC(=O)CCC/C=C\C[C@@H]1[C@@H](CC[C@@H](O)CCc2ccccc2)[C@H](O)C[C@@H]1O` [(13,14-dihydro-17-phenyl-18,19,20-trinor PGF2αN,N-diethylaminoethyl ester], the hair growth result in the series on eyelashes and hairs [1] was “grow longer and fuller”. Also, the eyelash growth result with eyelashes and hairs [2] is “grow longer and fuller”.
As to `Br.CCN(CC)CCOC(=O)CCC/C=C\C[C@@H]1[C@@H](/C=C/[C@@H](O)CCc2ccccc2)[C@H](O)C[C@@H]1O` [HPC of bimatoprost, N,N-diethylaminoethyl (Z)-7-{[(1R,2R,3R,5S)-3,5-Dihydroxy-2-[1E,3S]-3-hydroxy-5-phenyl-1-pentenyl]cyclopentyl}-5-N-ethylheptenoate.HBr], in the series with eyelashes and hairs [1], the hair growth result is “grow longer and fuller”. For the same molecule, the eyelash growth result in the series with eyelashes and hairs [2] was “grow longer and fuller”.
With `Br.CCCCCC(O)C=C[C@H]1C(O)CC(=O)[C@@H]1CCCCCCC(=O)OCCN(CC)CC` (stereo partly shown) [HPC of prostaglandin E1, N,N-diethylaminoethyl 11,15-dihydroxy-9-oxoprost-13-en-1-oate.HBr], the hair growth result in the series on eyelashes and hairs [1] is “grow longer and fuller”. In addition, the eyelash growth result with eyelashes and hairs [2] was “grow longer and fuller”.
`Br.CCN(CC)CCOC(=O)CCC/C=C\C[C@@H]1[C@@H](/C=C/[C@@H](O)COc2cccc(C(F)(F)F)c2)[C@H](O)C[C@@H]1O` [N,N-diethylaminoethyl (Z)-7-[(1R,2R,3R,5S)-3,5-dihydroxy-2-[(1E,3R)-3-hydroxy-4-[(α,α,α-trifluoro-m-tolyl)oxy]-1-butenyl]cyclopentyl]-5-heptenoate.HBr]: the hair growth result in the series on eyelashes and hairs [1] was “grow longer and fuller”. The eyelash growth entry with eyelashes and hairs [2] was “grow longer and fuller”.
`CC(C)Cc1ccc(C(C)C(=O)OCC2CCCNC2)cc1.Cl` (stereo not shown) [P-5, 3-piperidinemethyl 2-(ρ-isobutylphenyl) propionate.HCl]: in series [3] (setting [8]), the “tumor Size at day 30” value stood at 520 ± 140 mm^3. In series [3] (in vivo), the “Weight of mice at day 30” value was 23 ± 2. In series [4] (50 μl of 5% topically every 8 hours), the “tumor Size at day 42” value is recorded as 180 ± 55 mm^3. In series [4] (in vivo), the “Weight of mice at day 42” value came to 23 ± 2. Also, the “time until lesions healed after the application” value (“time until lesions healed” for short) in series [5] turned out to be 10 days.
Regarding `CCN(CC)CCOC(=O)Cc1ccc(C(=O)c2ccc(C)cc2)n1C.Cl` [P-13, diethylaminoethyl 1-methyl-5-(4-methylbenzoyl)-1H-pyrrole-2-acetate.HCl], in series [3] (setting [8]), the “Weight of mice at day 30” value is on record as 23 ± 3 and the “tumor Size at day 30” value amounted to 690 ± 250 mm^3. Further, the “time until lesions healed” value in series [5] is reported as 10 days.
For `CC(C)NCC(O)COc1ccc(CC(N)=O)cc1` (stereo not shown) [atenolol HPC, atenolol HCl salt], in the series with Hypertension patients (100 mg in 1 ml of pure water per day transdermally), the side effect entry was “without side effect of hypotention”. In addition, in the series on Hypertension patients (setting [9]), the “Blood Pressure (before treatment), first figure of the pair” value was 160 ± 22 mmHg; the “Blood Pressure (before treatment), second figure of the pair” value is 110 ± 20 mmHg; the “Blood pressure (2 weeks after treatment), first figure of the pair” value is given as 128 ± 15 mmHg; the “Blood pressure (2 weeks after treatment), second figure of the pair” value was found to be 81 ± 12 mmHg.
Broadly, the MIC is the lowest concentration that inhibits growth of the organism. `CO/N=C(\C(=O)N[C@@H]1C(=O)N2C(C(=O)O)=CCS[C@H]12)c1csc(N)n1` [ceftizoxime, reference compound]: in series [6] (read-out: MIC), the MIC was 986 µg/mL (≈ 2.57 mM).
The same measure, in the same setting: the result for `CCN(CC)CCOC(=O)C1=CCSC2C(NC(=O)C(=NOC)c3csc(NC(C)=O)n3)C(=O)N12.Cl` (stereo not shown) [ceftizoxime-DEE, 7-[[(2-acetylamino-4-thiazolyl)(methoxyimino)acetyl]amino]-8-oxo-5-thia-1-azabicyclo[4.2.0]oct-2-ene-2-carboxylic acid 2-diethylaminoethyl ester hydrochloride] reads 2.5 µg/mL.
As to `CCN(CC)CCOC(=O)Cc1cc(C)c(C(=O)c2ccc(Cl)cc2)n1C.Cl` [diethylaminoethyl 5-(4-Chlorobenzoyl)-1,4-dimethyl-1H-pyrrole-2-acetate. HCl], in series [5], the “time until lesions healed” value amounted to 10 days.
On to `COc1cccc(OC)c1C(=O)N[C@@H]1C(=O)N2[C@@H]1SC(C)(C)[C@@H]2C(=O)O` [methicillin, reference compound], for which the MIC in series [6] (read-out: MIC) was 1160 µg/mL (≈ 3.04 mM).
The molecule `COc1cccc(OC)c1C(=O)NC1C(=O)N2C1SC(C)(C)C2C(=O)OCC1CCCN1.Cl` (stereo not shown) [methicillin-PME, 6-(2,6-dimethoxybenzamido)penicillinic acid 2-pyrrolidinemethyl ester hydrochloride] showed an MIC in series [6] of 19 µg/mL.
With `NC(=O)C[S+]([O-])C(c1ccccc1)c1ccccc1` (stereo not shown) [modafinil, reference compound], the “effect on the increase of nigrostriatal Glu release induced by MPTP” value in series [7] is “did not change the increase of nigrostriatal Glu release induced by MPTP”.
On to `CC1(C)S[C@@H]2[C@H](NC(=O)COc3ccccc3)C(=O)N2[C@H]1C(=O)O` [penicillin V, reference compound], for which the MIC in series [6] stood at 1824 µg/mL (≈ 5.21 mM).
In turn, `CC1(C)SC2C(NC(=O)COc3ccccc3)C(=O)N2C1C(=O)OCCN1CCCCC1.Cl` (stereo not shown) [penicillin V-PEE, 6-phenoxyacetacetamidopenicillanic acid 1-piperidineethyl ester hydrochloride] yielded a minimal inhibitory concentration (MIC) in series [6] of 12 µg/mL.
